Reference: patent US11213506B2, “Combination therapy for the treatment or prevention of tumours” (QBIOTICS PTY LTD, priority 2017, dated 2022)

How the values were obtained:
Type in all cases: cell-based, human
MM649 cells [1] = experiment: Lactate dehydrogenase (LDH) release assay; conditions: 300 μM and 500 μM
Description: (§1) A431 (human epidermoid carcinoma), MM649 (human melanoma), B16-OVA (B16-F10 mouse melanoma cell line stably transfected with chicken ovalbumin), MM415 (human melanoma) and FaDu (human hypopharyngeal carcinoma) cells were cultured in RPMI-1640, 10% FCS (complete medium) at 37° C., 5% CO2 in a humidified incubator. All cell lines used in this study were confirmed as mycoplasma negative using MycoAlert (Lonza). STR profiling was also performed to confirm the identity of the human cell lines used.
(§2) Measuring the release of LDH is a well-recognised assay to assess plasma membrane permeabilisation and detect cell death by necrosis (Chan et al. 2013). Three cell lines (A431, MM649 and B16-OVA) were used in these assays. Cells were plated at a density of 10,000 cells per well into clear 96-well plates (Corning, #3595; 100 μl of complete media) and the resultant plates incubated overnight as previously detailed. The following day, media was aspirated from each well and 50 μl of fresh medium was inserted. Stock solutions of Compound 1 were diluted to 2× final assay concentrations (1 mM and 600 μM) and 50 μl of these dilutions added to the required wells. […] OD490 nm and OD690 nm readings were recorded for each sample using a Hybrid Synergy H4 plate reader. Absorbance readings from drug treated samples were normalized to detergent treated controls to determine the % LDH release per well.

A431 cells [2] = experiment: Lactate dehydrogenase (LDH) release assay; conditions: 300 μM and 500 μM
Description: as §1, §2

MM649 cells [3] = experiment: Calreticulin externalization assay (flow cytometry); conditions: within 60 minutes of treatment
Description: (§3) Calreticulin externalization was determined as previously detailed (Gomez-Cadena et al. 2016). Briefly, cells (A431, MM649, B16-OVA) cultured in complete medium at 37° C., 5% CO2 were detached via trypsinisation, centrifuged at 1,200 rpm and washed ×2 with fresh medium. After an additional round of centrifugation, the resultant cell pellet was resuspended at a concentration of 1×10^6 cells/ml, after which epoxytigliane was added to a final concentration of 500 or 300 μM. Ethanol only controls were also performed. Cell suspensions were incubated at 37° C., 5% CO2 and at the indicated timepoints, 200 μl of sample was removed and incubated with LIVE/DEAD fixable far red stain for 5 mins on ice. Following this, cells were pelleted at 1,200 rpm for 4 mins and washed ×1 with PBS. 500 μl of PBS, 0.25% formaldehyde was then added to each pellet to perform a light fixation without compromising plasma membrane integrity. […]
(§4) Samples were gated by FSC-H v FSC-A first to identify single cells, after which the LIVE/DEAD stain (Ex: 640 nm, Em: 670/14) negative (intact cell) population was analysed for green fluorescence (Ex: 488 nm, Em: 530/30; calreticulin externalization). Mean fluorescence intensity values were subsequently determined and graphed versus time.

A431 cells [4] = experiment: as above; conditions: within 60 minutes of treatment
Description: as §3, §4

SMILES: C/C=C(\C)C(=O)O[C@@H]1[C@@H](C)[C@@]2(O)[C@H]([C@@H]3C(C)(C)[C@]13OC(=O)[C@@H](C)CC)[C@@H]1O[C@]1(CO)[C@@H](O)[C@]1(O)C(=O)C(C)=C[C@H]12 [Compound 1, 12-tigloyl-13-(2-methylbutanoyl)-6,7-epoxy-4,5,9,12,13,20-hexahydroxy-1-tiglien-3-one]
- LDH release compared to the controls (MM649 cells [1]): significant release of LDH
- LDH release compared to the controls (A431 cells [2]): significant release of LDH
- calreticulin externalisation (mean fluorescence intensity) (MM649 cells [3]): significant increases in mean fluorescence intensity
- calreticulin externalisation (mean fluorescence intensity) (A431 cells [4]): significant increases in mean fluorescence intensity
